# Read-outs that look alike come from different tables or passages of the source.
# Columns and labels:
# REM sleep = conditions: cited from earlier work
# [1] = system: normal volunteers self-selected for high dream recall and interest in lucid dreaming; experiment: randomized, double blind, placebo-controlled crossover trial of donepizil for lucid dreaming; format: in vivo, human; conditions: for odds of lucid dreaming: placebo 0.031
# Source text: Subjects collected dream content and other self-report measures on three nights, separated by a washout period of at least one week. […] After each spontaneous awakening during the three nights, Ss evaluated dream content on a range of measures including bizarreness, complexity, and intensity, affect, cognitive clarity, lucidity, and control. They also estimated sleep quality, insomnia, and degree of any adverse effects.
# lucid dreaming = system: lucid dreaming
# Source text: These include: 1. Using a cholinergic agonist (e.g., nicotine).
# [2] = rivastigmin 6-12 mg dose, galantamine 8-16 mg
molecule,measurement,setting,value
COC(=O)C1=CCCN(C)C1 [arecoline],effect on REM sleep,REM sleep; scientific literature studies,triggering/intensification of REM sleep
C[N+](C)(C)CCOC(N)=O [carbachol],effect on REM sleep,"REM sleep; microinjection in certain locations of the brain, such as the Pons",elicits extended periods of REM sleep
COc1cc2c(cc1OC)C(=O)C(CC1CCN(Cc3ccccc3)CC1)C2 (centres unmarked) [donepizil],"levels of dream variables, 5 mg dose vs placebo",[1]; 5 mg compared to placebo,significant elevations
same,odds of lucid dreaming,[1]; 5 mg,0.429
same,"levels of dream variables, 10 mg dose vs 5 mg dose",[1]; 10 mg compared to 5 mg,significantly higher levels
same,odds of lucid dreaming,[1]; 10 mg,0.754
same,"self-reported cognitive clarity, self-reflection and lucidity during dreaming, compared to placebo",[1]; both 5 and 10 mg dosages,significantly enhance
same,frequency of sleep paralysis,[1]; donepizil vs placebo,significantly elevated
same,Ss reporting one or more lucid dreams on the experimental nights,"[1]; nine of 10 Ss, 5 or 10 mg at bedtime, only one S on a placebo night",90%
same,estimated time awake during the night,"[1]; of a 9.0 hr night, placebo 126 min, p<0.05",176 min
same,"incidence of adverse events, notably mild insomnia and gastrointestinal symptoms","[1]; primarily associated with the higher dose, two subjects nausea, one vomiting",low
same,"cognitive clarity, lucidity, recall, control, bizarreness and visual vividness compared to placebo","[1]; self-report after each spontaneous awakening, donepizil vs placebo",significantly elevated
same,increase in estimated time awake during the night,"[1]; vs placebo, 9.0 hr night, p<0.05",40%
huperzine,outcome of test for lucid dreaming enhancement,lucid dreaming; dose correspondence with Aricept not yet worked out,promising results
"CCN(C)C(=O)Oc1cccc([C@H](C)N(C)C)c1 [Exelon, rivastigmin]",efficacy compared with Aricept,lucid dreaming; [2],work as well as
same,side effects compared with Aricept,lucid dreaming; [2],perhaps fewer side effects
COc1ccc2c3c1O[C@H]1C[C@@H](O)C=C[C@@]31CCN(C)C2 [galantamine],side effects compared with Aricept,lucid dreaming; [2],perhaps fewer side effects
